Source: patent US20240099344A1, “HYDROXY- AND METHOXY-SUBSTITUTED FLAVONOIDS AND THEIR USE” (Firmenich SA, priority 2021, published 2024)

Tests used:
[1] = system: human sensory panel (bitter and astringent taste); assay: Sensory testing in applications (human sensory panel, 8 experts); format: in vivo; conditions: scale of −5 (strong masking) to 5 (strong enhancing), 0 = reference application; for Smart Protein Beverage Astringent / Smart Protein Beverage Bitter / Smart Protein Beverage Off-flavor: 10 ppm in smart protein beverage
Description: Certain HMF compounds were tasted by a human sensory panel to assess their ability to reduce bitterness and astringency. The panel consisted of 8 experts evaluating the samples at 10 ppm for taste properties (bitter and astringent) on a scale of −5 to 5 (−5 denoted strong masking effect and 5 denoted strong enhancing effect, 0 being the intensity of a reference application in coffee, tea or pomegranate juice, smart protein beverage).

[2] = system: human sensory panel (sweet, bitter or astringent taste); assay: Sensory testing in model bases (human sensory panel, 20 trained panelists); format: in vivo; conditions: 10 ppm; scale of −5 (strong masking effect) to 5 (strong enhancing effect); 0 = reference water solution containing 4% sucrose or 10 ppm mixture of Limonin, Naringin and Nomilin
Description: Certain HMF compounds were tasted by a human sensory panel to assess their ability to reduce bitterness, reduce astringency, and enhance sweetness. The panel consisted of 20 trained panelists evaluating the samples at 10 ppm for taste properties (sweet, bitter or astringent) on a scale of −5 to 5 (−5 denoted strong masking effect and 5 denoted strong enhancing effect, 0 being the intensity of a reference water solution containing 4% sucrose or 10 ppm mixture of Limonin, Naringin and Nomilin).

Row | Compound | Coffee Astringency ([1]; 10 ppm in coffee) | Coffee Bitterness ([1]; 10 ppm in coffee) | Pomegranate Juice Astringency ([1]; 10 ppm in pomegranate juice) | Pomegranate Juice Bitterness ([1]; 10 ppm in pomegranate juice) | Smart Protein Beverage Astringent [1] | Smart Protein Beverage Bitter [1] | Smart Protein Beverage Off-flavor [1] | Tea Astringency ([1]; 10 ppm in tea) | Tea Bitterness ([1]; 10 ppm in tea) | Astringency [2] | Bitterness [2] | Sweetness [2]
1 | COc1ccc(-c2cc(=O)c3c(O)c(OC)c(O)c(OC)c3o2)cc1 [Compound 101, 5,7-dihydroxy-6,8,4′-trimethoxyflavone] | 0.17 | −0.58 | 0.67 | 0.31 | 0.4 | −0.6 | −0.1 | 1.00 | 0.83 | −1.21 | −1.59 | −0.23
2 | O=c1cc(-c2ccc(O)cc2)oc2cc(O)c(O)c(O)c12 [Compound 103, 5,6,7,4′-tetrahydroxyflavone] | – | – | – | – | 0.25 | 0.00 | −0.50 | – | – | −0.35 | −1.28 | 0.50
3 | COc1c(O)cc2oc(-c3ccccc3)cc(=O)c2c1O [Compound 104, 5,7-dihydroxy-6-methoxyflavone] | – | – | – | – | – | – | – | – | – | −0.48 | −1.08 | 0.17
4 | COc1ccc(-c2cc(=O)c3c(O)c(OC)c(O)cc3o2)cc1OC [Compound 105, 5,7-dihydroxy-6,3′,4′-trimethoxyflavone] | – | – | – | – | −1.0 | −0.80 | −0.80 | – | – | −0.53 | −2.02 | 0.58
5 | COc1cc(-c2oc3cc(O)cc(O)c3c(=O)c2O)ccc1O [Compound 106, 3,4′,5,7-tetrahydroxy-3′-methoxyflavone] | – | – | – | – | – | – | – | – | – | −0.34 | −1.47 | 0.58
6 | COc1cc(O)cc2c1C(=O)CC(c1ccccc1)O2 (stereo not drawn) [Compound 107, 5-methoxy-7-hydroxyflavanone] | – | – | – | – | – | – | – | – | – | −1.56 | −2.56 | 0.08
7 | COc1ccc(-c2oc3cc(OC)c(OC)c(O)c3c(=O)c2OC)cc1O [Compound 108, 3,6,7,4′-tetramethoxy-5,3′-dihydroxyflavone] | – | – | – | – | −0.33 | −0.42 | −0.33 | – | – | −1.01 | −1.94 | −0.08
8 | COc1c(O)cc(O)c2c(=O)cc(-c3ccccc3)oc12 [Compound 109, 5,7-dihydroxy-8-methoxyflavone] | – | – | – | – | – | – | – | – | – | −0.64 | −1.54 | −0.58
